Measurements taken from the NIST ThermoML archive (doi:10.1021/je0501991).

Tests used:
[1] = xn = mol fraction of the nth substance listed; conditions: 308.15 K, 101.33 kPa, Liquid
[2] = molar heat capacity at constant pressure; xn = mol fraction of the nth substance listed; conditions: Liquid
[3] = refractive index (Na D-line) (dimensionless); xn = mol fraction of the nth substance listed; conditions: 308.15 K, 101.33 kPa, Liquid, Standard Abbe refractometry
[4] = excess molar enthalpy (molar enthalpy of mixing); xn = mol fraction of the nth substance listed; conditions: 308.15 K, 101.33 kPa, Liquid

OCCc1ccccc1 [2-phenylethanol] + C[S+](C)[O-]
Conditions	excess molar enthalpy [kcal/mol]	mass density [kg/m3]	refractive index	viscosity [mPa·s]
[1], x2 = 0.0435	–	1011.25	–	7.049
[1], x2 = 0.1521	–	1017.45	–	6.133
[1], x2 = 0.2758	–	1024.6	–	5.162
[1], x2 = 0.3564	–	1029.49	–	4.611
[1], x2 = 0.4566	–	1035.91	–	3.976
[1], x2 = 0.5477	–	1042.18	–	3.446
[1], x2 = 0.6247	–	1047.95	–	3.052
[1], x2 = 0.7102	–	1054.95	–	2.652
[1], x2 = 0.7707	–	1060.33	–	2.398
[1], x2 = 0.8346	–	1066.5	–	2.157
[1], x2 = 0.8653	–	1069.64	–	2.056
[1], x2 = 0.9433	–	1078.31	–	1.806
[3], x2 = 0.0435	–	–	1.5257	–
[3], x2 = 0.1521	–	–	1.5224	–
[3], x2 = 0.2758	–	–	1.5179	–
[3], x2 = 0.3564	–	–	1.5145	–
[3], x2 = 0.4566	–	–	1.5099	–
[3], x2 = 0.5477	–	–	1.5052	–
[3], x2 = 0.6247	–	–	1.5008	–
[3], x2 = 0.7102	–	–	1.4956	–
[3], x2 = 0.7707	–	–	1.4916	–
[3], x2 = 0.8346	–	–	1.487	–
[3], x2 = 0.8653	–	–	1.4846	–
[3], x2 = 0.9433	–	–	1.4783	–
[4], x2 = 0.0655	-0.093	–	–	–
[4], x2 = 0.123	-0.15	–	–	–
[4], x2 = 0.1738	-0.185	–	–	–
[4], x2 = 0.219	-0.207	–	–	–
[4], x2 = 0.2961	-0.226	–	–	–
[4], x2 = 0.3593	-0.233	–	–	–
[4], x2 = 0.4569	-0.222	–	–	–
[4], x2 = 0.5286	-0.207	–	–	–
[4], x2 = 0.6273	-0.175	–	–	–
[4], x2 = 0.7163	-0.137	–	–	–
[4], x2 = 0.7709	-0.112	–	–	–
[4], x2 = 0.8347	-0.0825	–	–	–
[4], x2 = 0.8707	-0.0643	–	–	–
[4], x2 = 0.9099	-0.0459	–	–	–
[4], x2 = 0.9309	-0.0351	–	–	–
[4], x2 = 0.9528	-0.0234	–	–	–
[4], x2 = 0.9759	-0.012	–	–	–

molar heat capacity at constant pressure [J/K/mol], [2], 101.33 kPa
Conditions	298.15 K	308.15 K	318.15 K
x2 = 0	239.6	245.3	251.6
x2 = 0.08581	235	240.8	246.5
x2 = 0.1638	218.3	223.2	228.7
x2 = 0.2999	190.7	194.2	198.1
x2 = 0.4205	185	188.4	191.3
x2 = 0.519	185.5	188.2	190.7
x2 = 0.6293	169.3	171.3	173.6
x2 = 0.6713	171	172.8	174.9
x2 = 0.7066	162.6	164.6	166.5
x2 = 0.7919	162.7	164.8	166.8
x2 = 0.8596	156.2	157.3	159.1
x2 = 0.937	157.8	159.6	160
x2 = 0.9688	143.5	144.8	145.9

OCCCc1ccccc1 [3-phenyl-1-propanol] + C[S+](C)[O-]
Conditions	excess molar enthalpy [kcal/mol]	mass density [kg/m3]	refractive index	viscosity [mPa·s]
[1], x2 = 0.0936	–	996.28	–	8.592
[1], x2 = 0.1499	–	999.45	–	7.792
[1], x2 = 0.277	–	1007.07	–	6.19
[1], x2 = 0.3915	–	1014.73	–	5.032
[1], x2 = 0.4564	–	1019.55	–	4.488
[1], x2 = 0.578	–	1029.68	–	3.629
[1], x2 = 0.6526	–	1036.85	–	3.18
[1], x2 = 0.7233	–	1044.45	–	2.801
[1], x2 = 0.7879	–	1052.21	–	2.487
[1], x2 = 0.8512	–	1060.69	–	2.208
[1], x2 = 0.9027	–	1068.4	–	1.993
[1], x2 = 0.9543	–	1076.93	–	1.801
[3], x2 = 0.0936	–	–	1.5188	–
[3], x2 = 0.1499	–	–	1.5172	–
[3], x2 = 0.277	–	–	1.5132	–
[3], x2 = 0.3915	–	–	1.509	–
[3], x2 = 0.4564	–	–	1.5063	–
[3], x2 = 0.578	–	–	1.5008	–
[3], x2 = 0.6526	–	–	1.4969	–
[3], x2 = 0.7233	–	–	1.4931	–
[3], x2 = 0.7879	–	–	1.489	–
[3], x2 = 0.8512	–	–	1.4847	–
[3], x2 = 0.9027	–	–	1.4811	–
[3], x2 = 0.9543	–	–	1.4771	–
[4], x2 = 0.0737	-0.0543	–	–	–
[4], x2 = 0.1373	-0.0822	–	–	–
[4], x2 = 0.1927	-0.0951	–	–	–
[4], x2 = 0.2414	-0.103	–	–	–
[4], x2 = 0.3232	-0.101	–	–	–
[4], x2 = 0.389	-0.0946	–	–	–
[4], x2 = 0.4885	-0.0796	–	–	–
[4], x2 = 0.56	-0.0645	–	–	–
[4], x2 = 0.6563	-0.0423	–	–	–
[4], x2 = 0.7413	-0.0215	–	–	–
[4], x2 = 0.7925	-0.0115	–	–	–
[4], x2 = 0.8514	-0.00311	–	–	–
[4], x2 = 0.8843	0.00167	–	–	–
[4], x2 = 0.9162	0.00335	–	–	–
[4], x2 = 0.9386	0.0043	–	–	–
[4], x2 = 0.9582	0.00406	–	–	–
[4], x2 = 0.9787	0.00263	–	–	–

molar heat capacity at constant pressure [J/K/mol], [2], 101 kPa
Conditions	298.15 K	308.15 K	318.15 K
x2 = 0	276.3	284.1	291.8
x2 = 0.0905	259.9	265.7	273
x2 = 0.1204	250.3	256	262.8
x2 = 0.1712	243.4	249.7	256.2
x2 = 0.3375	211.1	215.5	220
x2 = 0.452	196.9	200	203.5
x2 = 0.5571	185.1	187.5	190.7
x2 = 0.6101	185.8	188.7	191.4
x2 = 0.6567	177	178.3	180.9
x2 = 0.7396	165.6	167.2	170
x2 = 0.806	162.2	163.9	165.4
x2 = 0.8718	159.2	160.5	161.9
x2 = 0.9487	148.5	149.3	151.3

OCc1ccccc1 [benzenemethanol] + C[S+](C)[O-]
Conditions	excess molar enthalpy [kcal/mol]	mass density [kg/m3]	refractive index	viscosity [mPa·s]
[1], x2 = 0.0641	–	1037.17	–	3.957
[1], x2 = 0.1255	–	1040.32	–	3.787
[1], x2 = 0.2283	–	1045.4	–	3.49
[1], x2 = 0.3275	–	1050.05	–	3.201
[1], x2 = 0.4152	–	1054.07	–	2.949
[1], x2 = 0.5117	–	1058.52	–	2.686
[1], x2 = 0.5942	–	1062.41	–	2.477
[1], x2 = 0.6646	–	1065.87	–	2.306
[1], x2 = 0.7406	–	1069.8	–	2.134
[1], x2 = 0.8125	–	1073.74	–	1.988
[1], x2 = 0.8745	–	1077.57	–	1.858
[1], x2 = 0.9388	–	1081.3	–	1.748
[3], x2 = 0.0641	–	–	1.5328	–
[3], x2 = 0.1255	–	–	1.5297	–
[3], x2 = 0.2283	–	–	1.5252	–
[3], x2 = 0.3275	–	–	1.5204	–
[3], x2 = 0.4152	–	–	1.5157	–
[3], x2 = 0.5117	–	–	1.5099	–
[3], x2 = 0.5942	–	–	1.5048	–
[3], x2 = 0.6646	–	–	1.4998	–
[3], x2 = 0.7406	–	–	1.4946	–
[3], x2 = 0.8125	–	–	1.4891	–
[3], x2 = 0.8745	–	–	1.4838	–
[3], x2 = 0.9388	–	–	1.4785	–
[4], x2 = 0.0571	-0.114	–	–	–
[4], x2 = 0.108	-0.194	–	–	–
[4], x2 = 0.1537	-0.249	–	–	–
[4], x2 = 0.195	-0.291	–	–	–
[4], x2 = 0.2666	-0.332	–	–	–
[4], x2 = 0.3264	-0.358	–	–	–
[4], x2 = 0.4209	-0.358	–	–	–
[4], x2 = 0.492	-0.34	–	–	–
[4], x2 = 0.5924	-0.304	–	–	–
[4], x2 = 0.6856	-0.247	–	–	–
[4], x2 = 0.744	-0.201	–	–	–
[4], x2 = 0.8135	-0.147	–	–	–
[4], x2 = 0.8532	-0.118	–	–	–
[4], x2 = 0.8971	-0.0825	–	–	–
[4], x2 = 0.9208	-0.0614	–	–	–
[4], x2 = 0.9457	-0.0392	–	–	–
[4], x2 = 0.9721	-0.021	–	–	–

molar heat capacity at constant pressure [J/K/mol], [2], 101.33 kPa
Conditions	298.15 K	308.15 K	318.15 K
x2 = 0	200.4	203.9	207.2
x2 = 0.08706	196.4	201.5	206.4
x2 = 0.1439	189.3	193.7	198.6
x2 = 0.2708	168.3	172.9	177
x2 = 0.3817	167	170.3	174.1
x2 = 0.4964	162.3	164.4	166.7
x2 = 0.5422	160.1	162.4	164.9
x2 = 0.5966	159.3	161.5	163.6
x2 = 0.6863	146.6	149.1	150.8
x2 = 0.7711	146.9	148.1	149.8
x2 = 0.8577	149.7	151.2	152.5
x2 = 0.9237	149	150.2	151.4
x2 = 0.9508	146.4	147.6	148.8
